The values below come from patent publication US8551721B2, “Bioluminescent detection of cyanohydroxy benzothiazole compounds” (Promega Corporation, priority 2008, dated 2013).

Holding throughout (type): biochemical
One experiment has as its target T1, UGT 1A4 (Homo sapiens, UniProt P22310).
T1 construct: purchased BD Gentest; host or cells: insect cells (microsomes)
T1 sequence (P22310 29-534): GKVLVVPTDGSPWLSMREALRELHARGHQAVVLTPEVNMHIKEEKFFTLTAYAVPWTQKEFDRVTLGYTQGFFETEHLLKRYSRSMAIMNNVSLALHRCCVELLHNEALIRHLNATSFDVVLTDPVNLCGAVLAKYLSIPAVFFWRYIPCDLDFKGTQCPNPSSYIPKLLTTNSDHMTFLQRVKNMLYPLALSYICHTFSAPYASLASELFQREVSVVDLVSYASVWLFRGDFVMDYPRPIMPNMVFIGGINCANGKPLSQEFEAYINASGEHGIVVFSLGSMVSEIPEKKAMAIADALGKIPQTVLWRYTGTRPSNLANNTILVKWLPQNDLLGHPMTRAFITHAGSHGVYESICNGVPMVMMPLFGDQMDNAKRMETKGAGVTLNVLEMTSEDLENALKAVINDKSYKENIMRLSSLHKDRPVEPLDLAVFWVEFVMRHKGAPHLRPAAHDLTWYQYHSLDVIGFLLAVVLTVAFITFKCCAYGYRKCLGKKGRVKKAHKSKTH
Nature of the experiment: UGT activity: utilization of substrate by recombinant UGT 1A4 Supersomes. The conditions noted are these: 2 hour incubation at 37° C., plus vs minus UDPGA. The procedure:
(§1) The invention includes a method of determining activity of the uridine 5′-diphospho-glucuronosyltransferase (UDP-glucuronosyltransferase, or UGT) family enzymes in vitro. Briefly, UGT enzymes from overexpressed insect microsomes (Supersomes™, BD Gentest™) or animal tissue microsomes (Xenotech, BD Gentest™) were incubated with a cyanobenzothiazole substrate of the invention and the cofactor UDP-glucuronic acid (UDPGA) at 37° C. in buffer at physiological pH containing MgCl2 and alamethicin (typically, 50 mM TES, pH 7.5, 8 mM MgCl2, 4 mM UDPGA (Sigma) and 25 μg/mL alamethicin (Sigma)). Following the UGT enzyme reaction, an equal volume of P450-Glo Luciferin Detection Reagent (Promega) containing 15-30 mM D-cysteine-HCl.H2O (Sigma) was added and the plate was mixed and incubated at room temperature, typically for 20-30 minutes. P450-Glo Luciferin Detection Reagent can be prepared by dissolving a vial of Promega Luciferin Detection Reagent (Promega Part #V859B) with a vial of Promega P450-Glo Buffer (Promega Part #V865B).
During this incubation, the cysteine reacts with the cyanobenzathiozole substrate to yield a D-luciferin derivative. […] Therefore, activity of the UGT enzyme can be measured by analyzing the difference (lower or no output) in relative light units (RLU) of a sample in which glucuronidation occurs compared to a sample that was run under the same conditions with no added UDPGA cofactor.
In this example, a series of 12 recombinant UGTs expressed in insect microsomes (Supersomes™, BD Gentest™), as well as the control microsomes not expressing the UGT enzyme, were incubated with compound 3138, compound 3478, or compound 3165 as substrates, with or without the UDPGA co-factor. […]
(§2) Reactions were assembled in a white 96-well plate. […] After the incubation was completed, the plate was read on a Veritas™ luminometer (Turner BioSystems, Inc.; Sunnyvale, Calif.). […]

A further experiment concerns the target T2, UGT 2B7 (Homo sapiens, UniProt P16662).
T2 construct: purchased BD Gentest; host or cells: insect cells (microsomes)
T2 sequence (P16662 24-529): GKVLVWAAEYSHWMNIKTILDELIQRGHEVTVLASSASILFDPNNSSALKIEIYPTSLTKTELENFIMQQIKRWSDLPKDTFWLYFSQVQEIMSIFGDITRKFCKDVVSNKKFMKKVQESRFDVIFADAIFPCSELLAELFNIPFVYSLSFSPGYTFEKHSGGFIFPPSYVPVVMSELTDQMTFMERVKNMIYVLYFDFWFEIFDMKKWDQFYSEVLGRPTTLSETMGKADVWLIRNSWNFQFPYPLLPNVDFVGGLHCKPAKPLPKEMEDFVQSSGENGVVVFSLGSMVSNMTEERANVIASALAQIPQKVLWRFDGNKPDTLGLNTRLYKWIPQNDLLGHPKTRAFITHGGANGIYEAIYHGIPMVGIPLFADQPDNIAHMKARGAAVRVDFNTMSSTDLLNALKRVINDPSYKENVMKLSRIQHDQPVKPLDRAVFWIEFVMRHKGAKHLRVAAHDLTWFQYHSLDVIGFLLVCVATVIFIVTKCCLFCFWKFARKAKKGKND
The experiment can be described thus: UGT activity: utilization of substrate by recombinant UGT 2B7 Supersomes. The conditions noted are these: 2 hour incubation at 37° C., plus vs minus UDPGA, background corrected. How it is done:
as §1, with “P450-Glo Luciferin Detection Reagent can be prepared by dissolving a vial of Promega Luciferin Detection Reagent (Promega Part #V859B) with a vial of Promega P450-Glo Buffer (Promega Part #V865B).” left out
(§3) During this incubation, the cysteine reacts with the cyanobenzathiozole substrate to yield a D-luciferin derivative. […] Therefore, activity of the UGT enzyme can be measured by analyzing the difference (lower or no output) in relative light units (RLU) of a sample in which glucuronidation occurs compared to a sample that was run under the same conditions with no added UDPGA cofactor. […]
as §2

The next experiment concerns the target T3, UGT 2B15 (Homo sapiens, UniProt P54855).
T3 construct: purchased BD Gentest; host or cells: insect cells (microsomes)
T3 sequence (P54855 24-530): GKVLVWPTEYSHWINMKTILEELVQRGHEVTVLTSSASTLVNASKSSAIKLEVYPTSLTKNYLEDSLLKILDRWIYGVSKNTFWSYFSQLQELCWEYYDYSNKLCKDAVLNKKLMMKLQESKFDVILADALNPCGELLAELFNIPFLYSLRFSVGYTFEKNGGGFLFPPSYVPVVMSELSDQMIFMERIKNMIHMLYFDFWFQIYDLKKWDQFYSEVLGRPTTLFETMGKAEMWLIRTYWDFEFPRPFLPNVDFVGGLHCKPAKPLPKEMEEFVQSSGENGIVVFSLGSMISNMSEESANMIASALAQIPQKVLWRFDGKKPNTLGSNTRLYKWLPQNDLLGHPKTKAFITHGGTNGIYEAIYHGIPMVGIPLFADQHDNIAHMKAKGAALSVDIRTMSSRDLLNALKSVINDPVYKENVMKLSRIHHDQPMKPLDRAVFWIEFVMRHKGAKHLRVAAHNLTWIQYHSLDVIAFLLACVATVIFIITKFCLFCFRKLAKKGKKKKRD
Nature of the experiment: UGT activity: utilization of substrate by recombinant UGT 2B15 Supersomes. The following applies: 2 hour incubation at 37° C., plus vs minus UDPGA. The procedure: as §1, with “P450-Glo Luciferin Detection Reagent can be prepared by dissolving a vial of Promega Luciferin Detection Reagent (Promega Part #V859B) with a vial of Promega P450-Glo Buffer (Promega Part #V865B).” left out
as §3, §2

In the case of `Cc1cc(O)cc2sc(C#N)nc12` [compound 3138], the “utilization by UGT 1A4 (in words)” value at UGT 1A4 is on record as “did not utilize either compound 3138 or 3478 to an appreciable extent”. Also, the “% utilization by UGT 2B7” value at UGT 2B7 is recorded as “over 50%”. Besides, the “utilization by UGT 2B15 (in words)” value at UGT 2B15 is “detectable levels of utilization above background”.
The matching figures for `Cc1cc(O)cc2sc(C3=NC(C(=O)O)CS3)nc12` (stereo not drawn) [compound 3478]: “did not utilize either compound 3138 or 3478 to an appreciable extent”, at most 15% and “only UGT 1A6 was able to utilize compound 3478 to any appreciable extent”.
